Active and inactive are the calls of the source.
What was measured:
Paired box protein Pax-8 = Paired box protein Pax-8 (Homo sapiens, UniProt Q06710); assay: inhibitors of PAX8-driven TPO luciferase reporter, dose response, RMG-I cells, cherry-pick (AID 687027); format: functional, cell-based;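 further: luciferase reporter driven by Pax8 target thyroperoxidase promoter measured by SteadyGlo luminescence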
[1] = HEK293T cytotoxicity, dose response, cytotoxicity control for miR-122 modulator project, cell-based, activator set, cherry-pick (AID 720690); format: functional;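 further: HEK293T human cells scored for general mammalian cytotoxicity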
[2] = NIH:OVCAR-3 ovarian cancer cell cytotoxicity, dose response, PAX8 inhibitor project, plate reader, dry powder samples (AID 743044); format: functional, cell-based
[3] = IOSE-T80 ovarian epithelial cell cytotoxicity, dose response, cytotoxicity control for PAX8 inhibitor project, plate reader, dry powder samples (AID 743045); format: functional, cell-based
[4] = cytotoxicity in OVCAR8 ovarian cancer cells, dose response, PAX8 project, cell-based, plate reader, dry powder samples (AID 743197); format: functional; conditions: OVCAR-8
[5] = HEK293T cytotoxicity, dose response, cytotoxicity control for miR-122 modulator project, cell-based, inhibitor set, cherry-pick, set 2 (AID 720697); format: functional
[6] = A549 cell cytotoxicity, dose response, cytotoxicity control, 24 h, CellTiter-Glo luminescence, cherry-picks (AID 1053115); format: functional, cell-based; conditions: A549, 24 h
[7] = A549 cell cytotoxicity, dose response, CellTiter-Glo luminescence, dry powder, set 17 (AID 1117284); format: functional, cell-based
[8] = growth inhibition of intracellular T. cruzi, dose response, cell-based, plate reader, dry powder samples (AID 651845); format: functional
[9] = T. cruzi intracellular amastigote growth inhibition, dose response, imaging, CA-I/72 strain, bovine embryo skeletal muscle, dry powder (AID 651885); format: functional, cell-based
[10] = T. cruzi growth inhibition in host cells, dose response, cell-based, plate reader, dry powder, set 2 (AID 652275); format: functional
[11] = inhibitors of non-replicating M. tuberculosis, dose response, luciferase, dry powder (AID 651620); format: functional; conditions: Mycobacterium tuberculosis
[12] = inhibitors of non-replicating M. tuberculosis, dose response, luciferase, dry powder (AID 651619); format: functional; conditions: Mycobacterium tuberculosis
[13] = Late stage assay provider results from the probe development effort to identify inhibitors of the Plasmodium falciparum M18 Aspartyl Aminopeptidase (M18AAP): radiolabel-based cell-based dose response assay to identify compounds that inhibit P. falciparum growth in RBCs, Set 2..; format: functional
[14] = A375 melanoma cell viability loss, dose response, counter-screen for MITF inhibitor project, CellTiter-Glo luminescence, dry powder, set 4 (AID 624364); format: functional, cell-based; conditions: A-375;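 further: A375 melanoma cells are MITF independent so this is a counter screen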
[15] = Plasmodium falciparum Dd2 Sybr green parasite growth Measured in Cell-Based and Microorganism Combination System Using Plate Reader - 2153-01_Inhibitor_Dose_DryPowder_Activity_Set3.; format: functional
[16] = P. falciparum Dd2 growth inhibitors, dose response, SYBR Green, dry powder samples (AID 1159566); format: functional, cell-based;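 further: potency for growth inhibition with lower SYBR green DNA signal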
[17] = P. falciparum Dd2 growth inhibitors, dose response, SYBR Green, dry powder samples, set 9 (AID 1159568); format: functional, cell-based
[18] = P. falciparum Dd2 growth inhibitors, dose response, SYBR Green, cherry-picked samples (AID 1159567); format: functional, cell-based
[19] = P. falciparum 3D7-ScDHODH growth inhibitors, dose response, SYBR Green, dry powder samples (AID 1159570); format: functional, cell-based;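 further: parasite growth measured after 72 hours of compound exposure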
[20] = P. falciparum ATP4 D1247Y mutant growth inhibitors, dose response, NITD609-resistant line, SYBR Green, dry powder (AID 1159571); format: functional, cell-based;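 further: parasites synchronized at ring stage by sorbitol before testing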
[21] = Late stage results for the probe development effort to identify inhibitors of Plasmodium falciparum gametocytes: Luminescence-based cell-based high throughput dose response assay to identify inhibitors of viability of late stage Plasmodium falciparum gametocytes.; format: functional
cells = format: functional, cell-based; conditions: INS-1E
[22] = Dose-response inhibition of insulin secretion in a rat insulinoma line at 5 mM glucose (AID 1117331); format: functional, cell-based; conditions: INS-1E

Chain of Paired box protein Pax-8 (Q06710 whole entry): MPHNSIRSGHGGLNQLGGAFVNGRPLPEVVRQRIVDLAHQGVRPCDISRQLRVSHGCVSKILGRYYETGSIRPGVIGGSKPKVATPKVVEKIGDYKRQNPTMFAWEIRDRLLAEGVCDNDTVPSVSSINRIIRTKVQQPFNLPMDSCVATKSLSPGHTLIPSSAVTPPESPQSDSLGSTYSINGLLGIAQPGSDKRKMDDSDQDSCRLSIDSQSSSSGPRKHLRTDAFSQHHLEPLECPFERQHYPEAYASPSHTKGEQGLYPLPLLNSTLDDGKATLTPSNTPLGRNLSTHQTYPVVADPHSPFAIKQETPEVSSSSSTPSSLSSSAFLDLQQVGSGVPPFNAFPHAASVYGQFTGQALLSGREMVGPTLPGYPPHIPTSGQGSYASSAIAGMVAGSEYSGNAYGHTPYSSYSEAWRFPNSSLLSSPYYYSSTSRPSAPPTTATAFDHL

SMILES: C[C@H](O)C#Cc1ccc2c(c1)O[C@@H](CN(C)Cc1ccc(-c3ccccc3)cc1)[C@H](C)CN([C@H](C)CO)S2(=O)=O
- AC50 (Paired box protein Pax-8): 5.27 µM (active)
- AC50 [1]: 9.51 µM (active)
- AC50 [2]: 46.9 µM (active)
- AC50 [3]: 34.8 µM (active)
- AC50 [4]: 44.2 µM (active)
- AC50 [5]: 8.52 µM (active)
- AC50 [6]: 50.8 µM (active)
- AC50 [7]: 26.4 µM (active)

SMILES: CC(C)N1C[C@H](C)[C@@H](CN(C)Cc2ccc(Oc3ccccc3)cc2)Oc2c(NC(=O)c3ccccc3)cccc2C1=O
- AC50 [8]: 0.506 µM (active)
- IC50 [9]: > 20 µM (inactive)
- AC50 [10]: 0.506 µM (active)

SMILES: [N-]=[N+]=NCCOCCNC(=O)c1ccc(C[S+]([O-])c2nnc(-c3ccc(Cl)cc3)o2)nc1 (centres undefined)
- IC90 [11]: 16 µM (active)
- IC90 [12]: 16 µM (active)

SMILES: COc1ccc(CCNc2cncc3ccccc23)cc1OC
- IC50 [13]: 4.5 µM (active)

SMILES: C=CCNC1=C(NC(=O)c2ccccc2)C(=O)c2ccccc2C1=O
- AC50 [14]: > 70 µM (inactive)

SMILES: CO[C@@H]1CN(C)C(=O)c2ccc(NC(=O)c3ccc4c(c3)OCO4)cc2OC[C@@H](C)N(Cc2ccc3c(c2)OCO3)C[C@H]1C
- AC50 [15]: 1.92 µM (active)
- AC50 [16]: 0.279 µM (active)
- AC50 [17]: 1.73 µM (active)
- AC50 [18]: 1.11 µM (active)
- AC50 [19]: 4.99 µM (active)
- AC50 [20]: 1.17 µM (active)

SMILES: O=C(Nc1nccs1)c1cc(C2CC2)nn1-c1ccccc1
- IC50 [21]: > 37.2 µM (inactive)

SMILES: CC1CC(=O)NN=C1c1ccc(NCC(C)(C)NCC(O)COc2cc(Cl)ccc2C#N)cc1 (centres undefined) [OBERADILOL]
- IC50 (cells): > 33.3 µM (inactive)
- IC50 [22]: 15.2 µM (inactive)
